{"source": "patent US20130289070A1", "about": "“Use of Levocabastine for Modulating Generation of Pro-Inflammatory Cytokines” (Bausch & Lomb Incorporated, priority 2007, published 2013)", "test_system": "EoL-1 (human eosinophilic leukaemia cell line) cells", "test": "TNF-α-induced cytokine release, EoL-1 cells differentiated with PMA (Luminex)", "assay_type": "cell-based", "set-up": "key to IL-1α (PMA), p of decrement / IL-1β (PMA), p of decrement / IL-1ra (PMA), p of decrement / IL-5 (PMA), p of decrement / IL-7 (PMA), p of decrement / IL-8 (PMA), p of decrement / IP-10 (PMA), p of decrement / MCP-1 (PMA), p of decrement / MIP-1β (PMA), p of decrement / RANTES (PMA), p of decrement / VEGF (PMA), p of decrement / Fractalkine (PMA), p of decrement / MIP-1α (PMA), p of decrement: ns = non significant", "method": "EoL-1 (human eosinophilic leukaemia cell line) cells (Saito et al., 1985; Mayumi, 1992) were maintained in RPMI-1640 medium with L-glutamine supplemented with 10% (v/v) FBS at 37° C. in a humidified atmosphere with 5% CO2. Where indicated, 24 h before the experiment 25 ng/mL PMA ((phorbol 12-myristate 13-acetate, purchased from Sigma Aldrich) was added to the medium to induce eosinophil granulation and differentiation (Ohtsu et al., 1993; Zimmermann et al., 2000).\nHalf-million cells were aliquoted per point in a 24 well plate; each experiment was performed in triplicate and carried out in parallel with eosinophils differentiated and non differentiated with PMA (25 ng/mL, 24 h). Cells were suspended in low serum medium (RPMI-1640, 0.1% (v/v) FBS). TNF-α was used to induce cytokine secretion as previously described by Steube et al. (2000), and the net release was obtained by comparison to the basal (non-TNF-α treated). In the first experiment we evaluated the concentration and time relation between TNF-α stimulation and cytokine release. Therefore, 5, 10, and 25 ng/mL of TNF-α was administered to the cells at 0, ½, 1, 2, 3, 6, 12 and 24 h (data not shown). An aliquot of 150 μL of supernate was collected for cytokines' analysis. […] Differentiated and non-differentiated EoL-1 cells were exposed from 0.1 to 2.3 mM levocabastine ([…]Levocabastine 0.05% solution eye drops containing cyclodextrins, without benzalkonium chloride), and aliquots of the supernates were collected after 12 and 24 h. The content of cytokines at time zero was estimated by treating the cells with 400 nM calcimycin (A-23187), which is a cytolytic agent that frees all the mediators from the cytoplasmic compartment. In addition, for each experiment we tested the effect of the vehicle, which was added to the wells in a concentration equal to the maximum amount used for drug dilution.\nSamples (supernates 12 and 24 h) in triplicate were analyzed using Luminex 200™ (Luminex, Austin, Tex.) and Beadview software v1.0 (Upstate Cell Signaling Solutions, Temecula, Calif.).\nAll data are presented as mean±SEM for the indicated number of experiments. Statistical significance was determined by Newman-Keuls test after ANOVA using GraphPad Prism (version 3.0; GraphPad Software Inc., San Diego, Calif., USA). P-values<0.05 were considered to be significant.", "key": {"[1]": {"details": "24 h, VCAM-1 + Levocabastine 2 mM vs VCAM-1"}}, "data": [{"smiles": "C[C@@H]1CN([C@H]2CC[C@](C#N)(c3ccc(F)cc3)CC2)CC[C@]1(C(=O)O)c1ccccc1", "note": "[Levocabastine, levocabastine]", "values": [{"measurement": "IP-10 (PMA), p of decrement", "setting": "24 h, TNF-α vs Lev 0.1 mM", "value": "ns"}, {"measurement": "MCP-1 (PMA), p of decrement", "setting": "24 h, TNF-α vs Lev 0.1 mM", "value": "ns"}, {"measurement": "MIP-1α (PMA), p of decrement", "setting": "24 h, TNF-α vs Lev 0.1 mM", "value": "ns"}, {"measurement": "MIP-1β (PMA), p of decrement", "setting": "24 h, TNF-α vs Lev 0.1 mM", "value": "ns"}, {"measurement": "RANTES (PMA), p of decrement", "setting": "24 h, TNF-α vs Lev 0.1 mM", "value": "ns"}, {"measurement": "VEGF (PMA), p of decrement", "setting": "24 h, TNF-α vs Lev 0.1 mM", "value": "ns"}, {"measurement": "Fractalkine (PMA), p of decrement", "setting": "24 h, TNF-α vs Lev 0.5 mM", "value": "ns"}, {"measurement": "IL-1ra (PMA), p of decrement", "setting": "24 h, TNF-α vs Lev 0.5 mM", "value": "ns"}, {"measurement": "IL-1α (PMA), p of decrement", "setting": "24 h, TNF-α vs Lev 0.5 mM", "value": "ns"}, {"measurement": "IL-1β (PMA), p of decrement", "setting": "24 h, TNF-α vs Lev 0.5 mM", "value": "ns"}, {"measurement": "IL-5 (PMA), p of decrement", "setting": "24 h, TNF-α vs Lev 0.5 mM", "value": "ns"}, {"measurement": "IL-7 (PMA), p of decrement", "setting": "24 h, TNF-α vs Lev 0.5 mM", "value": "ns"}, {"measurement": "IL-8 (PMA), p of decrement", "setting": "24 h, TNF-α vs Lev 0.5 mM", "value": "ns"}, {"measurement": "IP-10 (PMA), p of decrement", "setting": "24 h, TNF-α vs Lev 0.5 mM", "value": "ns"}, {"measurement": "MCP-1 (PMA), p of decrement", "setting": "24 h, TNF-α vs Lev 0.5 mM", "value": "ns"}, {"measurement": "MIP-1α (PMA), p of decrement", "setting": "24 h, TNF-α vs Lev 0.5 mM", "value": "ns"}, {"measurement": "MIP-1β (PMA), p of decrement", "setting": "24 h, TNF-α vs Lev 0.5 mM", "value": "ns"}, {"measurement": "RANTES (PMA), p of decrement", "setting": "24 h, TNF-α vs Lev 0.5 mM", "value": "ns"}, {"measurement": "VEGF (PMA), p of decrement", "setting": "24 h, TNF-α vs Lev 0.5 mM", "value": "ns"}, {"measurement": "Fractalkine (PMA), p of decrement", "setting": "24 h, TNF-α vs Lev 1.0 mM", "value": "ns"}, {"measurement": "IL-1ra (PMA), p of decrement", "setting": "24 h, TNF-α vs Lev 1.0 mM", "value": "ns"}, {"measurement": "IL-1α (PMA), p of decrement", "setting": "24 h, TNF-α vs Lev 1.0 mM", "value": "ns"}, {"measurement": "IL-1β (PMA), p of decrement", "setting": "24 h, TNF-α vs Lev 1.0 mM", "value": "p < 0.05"}, {"measurement": "IL-5 (PMA), p of decrement", "setting": "24 h, TNF-α vs Lev 1.0 mM", "value": "ns"}, {"measurement": "IL-7 (PMA), p of decrement", "setting": "24 h, TNF-α vs Lev 1.0 mM", "value": "ns"}, {"measurement": "IL-8 (PMA), p of decrement", "setting": "24 h, TNF-α vs Lev 1.0 mM", "value": "ns"}, {"measurement": "IP-10 (PMA), p of decrement", "setting": "24 h, TNF-α vs Lev 1.0 mM", "value": "ns"}, {"measurement": "MCP-1 (PMA), p of decrement", "setting": "24 h, TNF-α vs Lev 1.0 mM", "value": "ns"}, {"measurement": "MIP-1α (PMA), p of decrement", "setting": "24 h, TNF-α vs Lev 1.0 mM", "value": "ns"}, {"measurement": "MIP-1β (PMA), p of decrement", "setting": "24 h, TNF-α vs Lev 1.0 mM", "value": "ns"}, {"measurement": "RANTES (PMA), p of decrement", "setting": "24 h, TNF-α vs Lev 1.0 mM", "value": "ns"}, {"measurement": "VEGF (PMA), p of decrement", "setting": "24 h, TNF-α vs Lev 1.0 mM", "value": "p < 0.05"}, {"measurement": "Fractalkine (PMA), p of decrement", "setting": "24 h, TNF-α vs Lev 2.3 mM", "value": "p < 0.01"}, {"measurement": "IL-1ra (PMA), p of decrement", "setting": "24 h, TNF-α vs Lev 2.3 mM", "value": "ns"}, {"measurement": "IL-1α (PMA), p of decrement", "setting": "24 h, TNF-α vs Lev 2.3 mM", "value": "ns"}, {"measurement": "IL-1β (PMA), p of decrement", "setting": "24 h, TNF-α vs Lev 2.3 mM", "value": "ns"}, {"measurement": "IL-5 (PMA), p of decrement", "setting": "24 h, TNF-α vs Lev 2.3 mM", "value": "ns"}, {"measurement": "IL-7 (PMA), p of decrement", "setting": "24 h, TNF-α vs Lev 2.3 mM", "value": "ns"}, {"measurement": "IL-8 (PMA), p of decrement", "setting": "24 h, TNF-α vs Lev 2.3 mM", "value": "ns"}, {"measurement": "IP-10 (PMA), p of decrement", "setting": "24 h, TNF-α vs Lev 2.3 mM", "value": "ns"}, {"measurement": "MCP-1 (PMA), p of decrement", "setting": "24 h, TNF-α vs Lev 2.3 mM", "value": "ns"}, {"measurement": "MIP-1α (PMA), p of decrement", "setting": "24 h, TNF-α vs Lev 2.3 mM", "value": "ns"}, {"measurement": "MIP-1β (PMA), p of decrement", "setting": "24 h, TNF-α vs Lev 2.3 mM", "value": "ns"}, {"measurement": "RANTES (PMA), p of decrement", "setting": "24 h, TNF-α vs Lev 2.3 mM", "value": "ns"}, {"measurement": "VEGF (PMA), p of decrement", "setting": "24 h, TNF-α vs Lev 2.3 mM", "value": "p < 0.01"}, {"measurement": "Fractalkine (PMA), p of decrement", "setting": "[1]", "value": "ns"}, {"measurement": "G-CSF (PMA), p of decrement", "setting": "[1]", "value": "Increase"}, {"measurement": "GM-CSF (PMA), p of decrement", "setting": "[1]", "value": "ns"}, {"measurement": "IL-1ra (PMA), p of decrement", "setting": "[1]", "value": "Increase"}, {"measurement": "IL-1α (PMA), p of decrement", "setting": "[1]", "value": "Increase"}, {"measurement": "IL-1β (PMA), p of decrement", "setting": "[1]", "value": "ns"}, {"measurement": "IL-5 (PMA), p of decrement", "setting": "[1]", "value": "ns"}, {"measurement": "IL-6 (PMA), p of decrement", "setting": "[1]", "value": "ns"}, {"measurement": "IL-7 (PMA), p of decrement", "setting": "[1]", "value": "Increase"}, {"measurement": "IL-8 (PMA), p of decrement", "setting": "[1]", "value": "Increase"}, {"measurement": "IL-10 (PMA), p of decrement", "setting": "[1]", "value": "ns"}, {"measurement": "IL-12p40 (PMA), p of decrement", "setting": "[1]", "value": "P < 0.01"}, {"measurement": "IP-10 (PMA), p of decrement", "setting": "[1]", "value": "ns"}, {"measurement": "MCP-1 (PMA), p of decrement", "setting": "[1]", "value": "Increase"}, {"measurement": "MIP-1α (PMA), p of decrement", "setting": "[1]", "value": "Increase"}, {"measurement": "MIP-1β (PMA), p of decrement", "setting": "[1]", "value": "Increase"}, {"measurement": "RANTES (PMA), p of decrement", "setting": "[1]", "value": "Increase"}, {"measurement": "TGF-α (PMA), p of decrement", "setting": "[1]", "value": "ns"}, {"measurement": "VEGF (PMA), p of decrement", "setting": "[1]", "value": "P < 0.001"}, {"measurement": "release of VEGF (FIG. 4 Panel A)", "setting": "EoL-1 cells differentiated with PMA 24 h before the experiment", "value": "able to reduce the release"}, {"measurement": "IL-8 release (FIG. 9)", "setting": "PMA differentiated EoL-1 cells after TNF-α challenge", "value": "able to reduce"}]}]}
